Measurements taken from patent US20260199267A1, “METHOD FOR PREPARING ENDO-C[…] FROM VEGETABLE OILS USING LIPASE AND USE THEREOF” (KOREA RESEARCH INSTITUTE OF BIOSCIENCE AND BIOTECHNOLOGY, priority 2022, published 2026).

Experiments:
Format in all cases: cell-based
[1] = test system: IL-1β production in LPS-treated RAW 264.7 cells; assay: pro-inflammatory cytokine production, ELISA; conditions: reference inhibitor, concentration not given, 24 h
Description: (§1) RAW 264.7 cells were dispensed into a 24-well plate at a density of […], incubated for 24 hours, and then treated with a non-cytotoxic concentration of the sample and LPS ([…]), followed by an additional 24-hour incubation. The cell culture was centrifuged at 5,000 rpm for 5 minutes, and the supernatant was collected. The levels of […] (FIG. 88), IL-6 (FIG. 89), and TNF-α (FIG. 90) were then measured using an ELISA kit according to the manufacturer's instructions.

[2] = test system: IL-6 production in LPS-treated RAW 264.7 cells; assay: pro-inflammatory cytokine production, ELISA; conditions: reference inhibitor, concentration not given, 24 h
Description: as §1

[3] = test system: TNF-α production in LPS-treated RAW 264.7 cells; assay: pro-inflammatory cytokine production, ELISA; conditions: reference inhibitor, concentration not given, 24 h
Description: as §1

[4] = molecular target: cannabinoid receptor 2 (CB2) (Homo sapiens, UniProt P34972); assay: agonist effect on cannabinoid receptor, cAMP measurement; conditions: CB2, concentration-response graph
cannabinoid receptor 2 (CB2), sequence (P34972 whole entry): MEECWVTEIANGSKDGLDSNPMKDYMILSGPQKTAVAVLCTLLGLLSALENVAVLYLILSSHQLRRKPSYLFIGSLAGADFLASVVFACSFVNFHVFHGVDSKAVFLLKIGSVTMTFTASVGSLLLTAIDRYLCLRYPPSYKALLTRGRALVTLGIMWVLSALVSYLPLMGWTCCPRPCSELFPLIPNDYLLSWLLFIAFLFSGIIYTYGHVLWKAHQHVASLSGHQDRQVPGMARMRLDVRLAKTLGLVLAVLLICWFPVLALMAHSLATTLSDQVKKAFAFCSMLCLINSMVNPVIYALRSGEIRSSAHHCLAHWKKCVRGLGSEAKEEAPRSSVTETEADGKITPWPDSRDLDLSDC
Description: The efficacy was evaluated by measuring the amount of cyclic adenosine monophosphate (cAMP) generated from adenosine triphosphate (ATP) through the activation of adenylyl cyclase, which is triggered by G-protein alpha (G-protein a) as part of the stepwise signal transduction pathway initiated upon the binding of the test sample to the receptor. The efficacy was evaluated by measuring the amount of cyclic adenosine monophosphate (cAMP) generated from adenosine triphosphate (ATP) through G-protein alpha (G-protein a), which is activated by the binding of the sample to the receptor as part of the stepwise signal transduction pathway, and adenylyl cyclase, which is activated by G-protein a.

Row | Compound | decrease of IL-1β production [1] [%] | decrease of IL-6 production [2] [%] | decrease of TNF-α production [3] [%] | Graph Min [4]
1 | N.S=C(S)N1CCCC1 [APDTC] | 45.39 | 47.12 | 20.28 | 
2 | CCCCCCC(C)(C)c1ccc([C@@H]2C[C@H](O)CC[C@H]2CCCO)c(O)c1 [CP55940] |  |  |  | 5.4524
